From patent US20260042755A1, “GPR6 INVERSE AGONISTS” (MapLight Therapeutics, Inc., priority 2022, published 2026)
pIC50: −log10 of the molar value.

Experiments:
GPR6 = target: T1, GPR6 (Homo sapiens, UniProt P46095); experiment: GPR6 antagonist functional cAMP assay (LANCE Ultra cAMP TR-FRET, CHO cells stably expressing GPR6); format: cell-based
T1 construct: expressed in transfected cells; host or cells: CHO cells
Method: (§1) Example 56. GPR6 and GPR3 Antagonist Functional cAMP Assay
(§2) CHO cells stably expressing GPR6 or GPR3 receptors were dissociated from cell culture flasks and incubated for 2 h at 37° C. in a 10 cm dish in a humidified incubator. Cells were dissociated, counted to have 1e6 cells/mL (4.5e6 cells needed/384-well plate), washed once in starved media, than in D-PBS and finally suspended in assay buffer (Krebs-Ringer Bicarbonate Buffer with 1800 mg/L glucose, without calcium chloride and sodium bicarbonate (Sigma) in the presence of 0.1% BSA and 150 μM of Ro 20-1724 Phosphodiesterase inhibitor).
(§3) Cells in suspension from above were plated in 384-well white Optiplate (PerkinElmer) at 10,000 cells/well/10 μl, briefly centrifuged prior direct addition of compounds ([…]) in 10 mM DMSO using a Tecan D300e Digital Dispenser, final DMSO in each well was normalized to 0.1%. Cells were incubated in the presence of compounds for 45 min at 37° C. in a humidified incubator.
(§4) To measure cAMP levels, LANCE® Ultra cAMP assay (Perkin Elmer), a homogeneous time-resolved fluorescence resonance energy transfer (TR-FRET) immunoassay was used following manufacturer's recommendations. Plates were shaken for 1 h at room temperature before reading on a Tecan InfiniteF200Pro multi-mode plate reader using standard FRET settings (Excitation 340 nm, Emission at 615 nm). FRET values were reported as readings obtained at 665 nm. Data were normalized to DMSO (0.1%) and reference compounds (100%) and fit to a 4-parameter logistical fit to generate antagonist IC50s.

GPR3 = target: T2, GPR3 (Homo sapiens, UniProt P46089); experiment: GPR3 antagonist functional cAMP assay (LANCE Ultra cAMP TR-FRET, CHO cells stably expressing GPR3); format: cell-based
T2 construct: expressed in transfected cells; host or cells: CHO cells
Method: as §1, §2, §3, §4

T2 sequence (P46089 whole entry, species assumed): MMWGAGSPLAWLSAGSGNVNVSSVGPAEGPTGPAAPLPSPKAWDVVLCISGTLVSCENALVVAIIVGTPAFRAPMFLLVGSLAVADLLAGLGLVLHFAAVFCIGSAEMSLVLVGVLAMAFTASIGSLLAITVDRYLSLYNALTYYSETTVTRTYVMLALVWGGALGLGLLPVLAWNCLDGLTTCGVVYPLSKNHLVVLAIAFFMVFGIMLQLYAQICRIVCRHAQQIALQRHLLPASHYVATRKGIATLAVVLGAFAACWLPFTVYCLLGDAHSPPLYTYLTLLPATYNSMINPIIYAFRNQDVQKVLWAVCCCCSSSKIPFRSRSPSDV
T1 sequence (P46095 whole entry): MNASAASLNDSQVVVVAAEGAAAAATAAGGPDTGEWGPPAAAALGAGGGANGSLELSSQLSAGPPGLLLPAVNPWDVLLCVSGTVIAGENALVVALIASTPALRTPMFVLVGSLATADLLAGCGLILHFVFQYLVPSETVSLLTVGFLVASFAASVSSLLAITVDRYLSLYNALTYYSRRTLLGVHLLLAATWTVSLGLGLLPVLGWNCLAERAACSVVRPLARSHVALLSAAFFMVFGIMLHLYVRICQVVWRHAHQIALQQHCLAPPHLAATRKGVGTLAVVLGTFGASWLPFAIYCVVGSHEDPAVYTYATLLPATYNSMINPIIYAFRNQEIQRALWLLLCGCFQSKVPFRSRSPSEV

SMILES	pIC50 (GPR6; CHO cells stably expressing GPR6, cAMP assay)	pIC50 (GPR3; CHO cells stably expressing GPR3, cAMP assay)	pIC50 (GPR6; procedure of Example 24)	pIC50 (GPR3; procedure of Example 24)
CC(C)(O)C(O)c1cc2nc(-c3cnn(CF)c3)c(N3CCN(Cc4ccc(F)cc4F)CC3)nc2cn1 (single isomer, unassigned) [Compound 603]	> 7.00	4.52 to 6.00		
CC(C)(O)[C@H](O)c1cc2nc(N3CCN(Cc4ccccc4F)CC3)c(-c3cnn(C(F)F)c3)nc2cn1 (single isomer, unassigned) [Compound 612]			6.00 to 7.00	4.52 to 6.00
CC(C)(O)[C@@H](O)c1cc2nc(N3CCN(Cc4ccccc4F)CC3)c(-c3cnn(C(F)F)c3)nc2cn1 (single isomer, unassigned) [Compound 613]			6.00 to 7.00	4.52 to 6.00
COC[C@](C)(O)c1cc2nc(N3CCC(Oc4ccc(F)cc4F)CC3)c(-c3cnn(C)c3)nc2cn1 (single isomer, unassigned) [Compound 614]			6.00 to 7.00	4.52 to 6.00
COC[C@@](C)(O)c1cc2nc(N3CCC(Oc4ccc(F)cc4F)CC3)c(-c3cnn(C)c3)nc2cn1 (single isomer, unassigned) [Compound 615]			6.00 to 7.00	4.52 to 6.00
CO[C@@H](CO)c1cc2nc(N3CCC(Oc4ccc(F)cc4F)CC3)c(-c3cnn(C)c3)nc2cn1 (single isomer, unassigned) [Compound 640]			6.00 to 7.00	4.52 to 6.00
CO[C@H](CO)c1cc2nc(N3CCC(Oc4ccc(F)cc4F)CC3)c(-c3cnn(C)c3)nc2cn1 (single isomer, unassigned) [Compound 641]			6.00 to 7.00	4.52 to 6.00
COC[C@@H](O)c1cc2nc(N3CCC(Oc4ccc(F)cc4F)CC3)c(-c3cnn(C)c3)nc2cn1 (single isomer, unassigned) [Compound 642]			6.00 to 7.00	4.52 to 6.00
COC[C@H](O)c1cc2nc(N3CCC(Oc4ccc(F)cc4F)CC3)c(-c3cnn(C)c3)nc2cn1 (single isomer, unassigned) [Compound 643]			> 7.00	4.52 to 6.00
CC(C)(O)[C@@H](O)c1cc2nc(N3CCN(Cc4ccccc4F)CC3)c(-c3cnn(CF)c3)nc2cn1 (single isomer, unassigned) [Compound 647]			> 7.00	4.52 to 6.00
CC(C)(O)[C@H](O)c1cc2nc(N3CCN(Cc4ccccc4F)CC3)c(-c3cnn(CF)c3)nc2cn1 (single isomer, unassigned) [Compound 648]			6.00 to 7.00	4.52 to 6.00
CC(C)(O)[C@](C)(O)c1cc2nc(N3CCN(Cc4ccc(F)cc4F)CC3)c(-c3cnn(CF)c3)nc2cn1 (single isomer, unassigned) [Compound 649]			6.00 to 7.00	4.52 to 6.00
CC(C)(O)[C@@](C)(O)c1cc2nc(N3CCN(Cc4ccc(F)cc4F)CC3)c(-c3cnn(CF)c3)nc2cn1 (single isomer, unassigned) [Compound 650]			6.00 to 7.00	4.52 to 6.00
CC(C)(O)[C@](C)(O)c1cc2nc(N3CCC(Oc4ccc(F)cc4F)CC3)c(-c3cnn(C(F)F)c3)nc2cn1 (single isomer, unassigned) [Compound 655]			6.00 to 7.00	4.52 to 6.00
CC(C)(O)[C@@](C)(O)c1cc2nc(N3CCC(Oc4ccc(F)cc4F)CC3)c(-c3cnn(C(F)F)c3)nc2cn1 (single isomer, unassigned) [Compound 656]			6.00 to 7.00	4.52 to 6.00
CC(=O)N1CCc2nc(N3CCC([C@H](F)c4ccc(F)cc4F)CC3)c(-c3cnn(C)c3)nc2C1 (single isomer, unassigned) [Compound 658]			> 7.00	6.00 to 7.00
CC(=O)N1CCc2nc(N3CCC([C@@H](F)c4ccc(F)cc4F)CC3)c(-c3cnn(C)c3)nc2C1 (single isomer, unassigned) [Compound 659]			> 7.00	6.00 to 7.00
CC(C)(O)C(C)(O)c1cc2nc(-c3cnn(C(F)F)c3)c(N3CCN(Cc4ccc(F)cc4F)CC3)nc2cn1 (single isomer, unassigned) [Compound 662]			> 7.00	4.52 to 6.00
CC(C)(O)C(C)(O)c1cc2nc(-c3cnn(C(F)F)c3)c(N3CCN(Cc4ccc(F)cc4F)CC3)nc2cn1 (single isomer, unassigned) [Compound 663]			> 7.00	4.52 to 6.00
CC(C)(O)[C@](C)(O)c1cc2nc(N3CCC(Oc4ccc(F)cc4F)CC3)c(-c3cnn(C4CC4)c3)nc2cn1 (single isomer, unassigned) [Compound 664]			6.00 to 7.00	4.52 to 6.00

SMILES	pIC50 (GPR6; CHO cells stably expressing GPR6, cAMP assay)	pIC50 (GPR3; CHO cells stably expressing GPR3, cAMP assay)	pIC50 (GPR6; procedure of Example 24)	pIC50 (GPR3; procedure of Example 24)
CC(C)(O)[C@@](C)(O)c1cc2nc(N3CCC(Oc4ccc(F)cc4F)CC3)c(-c3cnn(C4CC4)c3)nc2cn1 (single isomer, unassigned) [Compound 665]			6.00 to 7.00	4.52 to 6.00
CC(C)(O)[C@](C)(O)c1cc2nc(N3CCN(Cc4ccc(F)cc4F)CC3)c(-c3cnn(C4CC4)c3)nc2cn1 (single isomer, unassigned) [Compound 666]			6.00 to 7.00	4.52 to 6.00
CC(C)(O)[C@@](C)(O)c1cc2nc(N3CCN(Cc4ccc(F)cc4F)CC3)c(-c3cnn(C4CC4)c3)nc2cn1 (single isomer, unassigned) [Compound 667]			6.00 to 7.00	4.52 to 6.00
CC(C)(O)C(O)c1cc2nc(-c3cnn(C(F)F)c3)c(N3CCN(Cc4ccccc4F)CC3)nc2cn1 (single isomer, unassigned) [Compound 668, 1-{2-[1-(difluoromethyl)-4-pyrazolyl]-3-{4-[(o-fluorophenyl)methyl]-1-piperazinyl}-1,4,6-triaza-7-naphthyl}-2-methyl-1,2-propanediol]			> 7.00	4.52 to 6.00
CC(C)(O)[C@](C)(O)c1cc2nc(N3CCN(Cc4ccccc4F)CC3)c(-c3cnn(C(F)F)c3)nc2cn1 (single isomer, unassigned) [Compound 669]			6.00 to 7.00	4.52 to 6.00
CC(C)(O)[C@@](C)(O)c1cc2nc(N3CCN(Cc4ccccc4F)CC3)c(-c3cnn(C(F)F)c3)nc2cn1 (single isomer, unassigned) [Compound 670]			6.00 to 7.00	6.00 to 7.00
Cn1cc(-c2nc3cnc([C@@](C)(O)C(C)(C)O)cc3nc2N2CCC(Oc3ccc(F)cc3F)CC2)cn1 (single isomer, unassigned) [Compound 672]			6.00 to 7.00	4.52 to 6.00
Cn1cc(-c2nc3cnc([C@](C)(O)C(C)(C)O)cc3nc2N2CCC(Oc3ccc(F)cc3F)CC2)cn1 (single isomer, unassigned) [Compound 673]			6.00 to 7.00	4.52 to 6.00
CC(C)(O)[C@](C)(O)c1cc2nc(N3CCN(Cc4ccccc4F)CC3)c(-c3cnn(CF)c3)nc2cn1 (single isomer, unassigned) [Compound 675]			6.00 to 7.00	4.52 to 6.00
CC(C)(O)[C@@](C)(O)c1cc2nc(N3CCN(Cc4ccccc4F)CC3)c(-c3cnn(CF)c3)nc2cn1 (single isomer, unassigned) [Compound 676]			6.00 to 7.00	4.52 to 6.00
CC(C)(O)[C@](C)(O)c1cc2nc(N3CCC(Oc4ccc(F)cc4F)CC3)c(-c3cnn(CF)c3)nc2cn1 (single isomer, unassigned) [Compound 677]			6.00 to 7.00	4.52 to 6.00
CC(C)(O)[C@@](C)(O)c1cc2nc(N3CCC(Oc4ccc(F)cc4F)CC3)c(-c3cnn(CF)c3)nc2cn1 (single isomer, unassigned) [Compound 678]			6.00 to 7.00	4.52 to 6.00
COC[C@@H](O)c1cc2nc(-c3cnn(C)c3)c(N3CCC(Oc4ccc(F)cc4F)CC3)nc2cn1 (single isomer, unassigned) [Compound 680]			> 7.00	6.00 to 7.00
COC[C@H](O)c1cc2nc(-c3cnn(C)c3)c(N3CCC(Oc4ccc(F)cc4F)CC3)nc2cn1 (single isomer, unassigned) [Compound 681]			> 7.00	6.00 to 7.00
CC(C)(O)[C@@](C)(O)c1cc2nc(-c3cnn(C4CC4)c3)c(N3CCN(Cc4ccc(F)cc4F)CC3)nc2cn1 (single isomer, unassigned) [Compound 682]			> 7.00	4.52 to 6.00
CC(C)(O)[C@H](O)c1cc2nc(-c3cnn(C(F)F)c3)c(N3CCN(Cc4ccccc4F)CC3)nc2cn1 (single isomer, unassigned) [Compound 685]			6.00 to 7.00	4.52 to 6.00
CC(C)(O)[C@@H](O)c1cc2nc(-c3cnn(C(F)F)c3)c(N3CCN(Cc4ccccc4F)CC3)nc2cn1 (single isomer, unassigned) [Compound 686]			> 7.00	6.00 to 7.00
COC[C@@](C)(O)c1cc2nc(-c3cnn(C)c3)c(N3CCC(Oc4ccc(F)cc4F)CC3)nc2cn1 (single isomer, unassigned) [Compound 688]			6.00 to 7.00	6.00 to 7.00
COC[C@](C)(O)c1cc2nc(-c3cnn(C)c3)c(N3CCC(Oc4ccc(F)cc4F)CC3)nc2cn1 (single isomer, unassigned) [Compound 689]			6.00 to 7.00	6.00 to 7.00
CCn1cc(-c2nc3cnc([C@@](C)(O)C(C)(C)O)cc3nc2N2CCN(Cc3ccc(F)cc3F)CC2)cn1 (single isomer, unassigned) [Compound 690]			6.00 to 7.00	4.52 to 6.00
